According to patent publication US7807705B2, “Potent indole-3-carbinol-derived antitumor agents” (The Ohio State University Research Foundation, priority 2007, dated 2010):
“Also recorded” adds a separate entry of the source.

Tests used:
[1] = test system: Normal human prostate epithelial cells (PrEC); assay: MTT cell viability assay; type: cell-based
Excerpt: (§1) Cell Culture. LNCaP androgen-responsive (p53^+/+) and PC-3 androgen-nonresponsive (p53^−/−) human prostate cancer cells were purchased from the American Type Tissue Collection (Manassas, Va.) and cultured in RPMI 1640 medium (Gibco, Grand Island, N.Y.) supplemented with 10% fetal bovine serum (FBS; Gibco).—Normal human prostate epithelial cells (PrEC) were obtained from Cambrex Bioscience-Walkersville (Walkersville, Md.), and maintained in the vendor's recommended defined prostate epithelial growth medium. All cell types were cultured at 37° C. in a humidified incubator containing 5% CO2.
(§2) Cell viability analysis. The effect of test agents on cell viability was assessed by using the MTT [3-(4,5-dimethylthiazol-2-yl)-2,5-diphenyl-2H-tetrazolium bromide] assay in six to twelve replicates. Cancer cells and PrECs were grown in 5% FBS-supplemented RPMI 1640 medium or 5% FBS-supplemented prostate epithelial growth medium, respectively, in 96-well, flat-bottomed plates for 24 h, and then exposed to various concentrations of test agents in the same medium for the indicated time intervals. […] Absorbance at 570 nm was determined on a plate reader.
(§3) These agents (A1-A24) were evaluated for their ability to reduce cell viability of PC-3 (p53^−/−) androgen-nonresponsive and LNCaP (p53^+/+) androgen-responsive prostate cancer cells after 24-h exposure by MTT assay.

[2] = test system: LNCaP cells; assay: Cell proliferation by direct cell counting (Coulter counter); type: cell-based, human
Description: (§4) Cell Proliferation. PC-3 and LNCaP cells were seeded into six-well plates at approximately 200,000 cells/well in 5% FBS-containing RPMI 1640 medium. Following a 24 h attachment period, cells were treated in triplicate with the indicated concentrations of test agent or DMSO vehicle in 5% FBS-containing RPMI-1640 medium. At different time intervals, cells were harvested by trypsinization, and numerated using a Coulter counter (Model Z1 D/T, Beckman Coulter, Fullerton, Calif.).
(§5) In line with the cell viability data, a concentration of at least 300 μM was required for indole-3-carbinol to attain the same level of efficacy.

[3] = test system: PC-3 cells; assay: as above; type: cell-based, human
Description: as §4, §5

[4] = NMR analysis of acid stability; type: physicochemical; settings: CD3OD plus deuterium-labeled HCl, room temperature; indole-3-carbinol t=5 min, OSU-A9 up to 8 h
Description: Nuclear magnetic resonance (NMR) analysis of acid stability. […] To each solution was added 100 μl of deuterium-labeled HCl, and NMR spectra were recorded in a 300 MHz NMR spectrometer at room temperature at different time intervals.
Individual compounds (20 mg) were dissolved in 1 ml of deuterium-labeled methanol (CD3OD).

[5] = molecular target: T1, PPARγ (Homo sapiens, UniProt P37231); assay: PPRE-luciferase reporter assay for PPARγ activation in PC-3 cells; type: cell-based; settings: even at 20 μM, 24 h
T1 construct: PC-3 cells were transfected with PPRE-X3-TK-Luc; endogenous in cells; host or cells: PC-3 cells
T1 sequence (P37231 1-505): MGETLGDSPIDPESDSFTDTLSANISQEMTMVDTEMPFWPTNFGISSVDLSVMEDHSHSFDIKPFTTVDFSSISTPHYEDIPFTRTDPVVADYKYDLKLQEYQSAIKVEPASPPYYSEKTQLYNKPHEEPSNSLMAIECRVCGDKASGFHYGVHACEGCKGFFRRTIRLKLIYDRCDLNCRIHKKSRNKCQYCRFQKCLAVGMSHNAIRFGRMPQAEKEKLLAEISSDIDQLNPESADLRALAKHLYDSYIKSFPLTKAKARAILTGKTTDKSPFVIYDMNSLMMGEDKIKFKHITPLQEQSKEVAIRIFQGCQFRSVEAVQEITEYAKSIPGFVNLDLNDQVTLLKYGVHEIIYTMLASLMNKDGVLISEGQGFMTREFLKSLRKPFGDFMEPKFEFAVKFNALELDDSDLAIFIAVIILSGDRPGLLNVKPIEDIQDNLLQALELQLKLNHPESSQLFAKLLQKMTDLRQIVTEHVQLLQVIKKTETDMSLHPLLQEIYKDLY
Description: Luciferase assay for PPARg activation. The PPRE-x3-TK-Luc reporter vector contains three copies of the PPAR-response element (PPRE) upstream of the thymidine kinase (tk) promoter-luciferase fusion gene and was kindly provided by Dr. Bruce Spiegelman (Harvard University, Cambridge, Mass.). PC-3 cells were cultured in a 100 mm plate in phenol red-free RPMI 1640 medium containing 10% FBS until the achieved 50-70% confluency, after which they were transfected with 6 μg of the plasmid using Fugene 6 (Roche, Indianapolis, Ind.) in RPMI 1640 medium. For each transfection, herpes simplex virus-thymidine kinase (HSV-TK) promoter-driven Renilla luciferase (phRL-TK) was used as an internal control for normalization. Following transfections, cells were treated as indicated, in RPMI 1640 medium containing 10% charcoal-stripped FBS. Cells were then collected into Passive Lysis Buffer (Promega), and luciferase activities in the cell lysates were determined by luminometry. All transfection experiments were carried out in triplicate plates and repeated separately at least three times.

[6] = test system: PC-3 cells; assay: Apoptosis analysis (morphology, caspase-3 activation and PARP cleavage by Western blot); type: cell-based, human; settings: for caspase-3 activation and PARP cleavage: 48 hours, Western blot
Description: Apoptosis analysis. Drug-induced apoptotic cell death was assessed by Western blot analysis of caspase-3 activation and poly-(ADP-ribose)polymerase (PARP) cleavage. […], washed with ice-cold PBS, and resuspended in lysis buffer containing 20 mM Tris-HCl, pH 8, 137 mM NaCl, 1 mM CaCl2, 10% glycerol, 1% Nonidet P-40, 0.5% deoxycholate, 0.1% SDS, 100 μM 4-(2-aminoethyl)benzenesulfonyl fluoride, leupeptin at 10 μg/mL, and aprotinin at 10 μg/mL. Soluble cell lysates were collected after centrifugation at 10,000 g for 5 min. Equivalent amounts of proteins (60-100 μg) from each lysate were resolved in 8% SDS-polyacrylamide gels. Proteins were transferred to nitrocellulose membranes, and analyzed by immunoblotting with antibodies against caspase-3 or PARP as described below.
Drug-treated cells became shrunken, rounded, and detached from the dish.

[7] = test system: Akt, GSK3β, Bad, ERKs, JNK, p38, Bcl-2 family members, survivin, NF-kB, cyclin D1, p27, p21 in PC-3 cells; assay: Immunoblotting of signaling targets in PC-3 cells; type: cell-based, human; settings: 48 h; for expression of Bax, p27, and p21: dose-dependent
Description: Immunoblotting. Biomarkers of apoptosis and signaling components associated with cell survival and growth arrest were assessed by Western immunoblotting as follows. Treated cells were washed in PBS, resuspended in SDS sample buffer, sonicated for 5 sec, and then boiled for 5 min. After brief centrifugation, equivalent amounts of proteins from the soluble fractions of cell lysates were resolved in 10% SDS-polyacrylamide gels on a Minigel apparatus, and transferred to a nitrocellulose membrane using a semi-dry transfer cell. The transblotted membrane was washed three times with TBS containing 0.05% Tween 20 (TBST). After blocking with TBST containing 5% nonfat milk for 60 min, the membrane was incubated with an appropriate primary antibody at 1:500 dilution (with the exception of anti-b-actin antibody, 1:2,000) in TBST-5% low fat milk at 4° C. for 12 h, and was then washed three times with TBST. The membrane was probed with goat anti-rabbit or anti-mouse IgG-horseradish peroxidase conjugates (1:2,500) for 90 min at room temperature, and washed three times with TBST. The immunoblots were visualized by enhanced chemiluminescence.
Indole-3-carbinol has been reported to target an array of signaling pathways to induce apoptosis and cell cycle arrest in cancer cells. […] These targets comprised three categories of biomarkers: a) phosphorylation of signaling kinases: Akt and its downstream effector GSK3β, ERKs, JNKs, and p38; b) phosphorylation/expression of Bcl-2 family members: Bad, Bax, Bcl-2, Bcl-xL, and Mcl-1; c) expression of other apoptosis and cell-cycle regulatory proteins: survivin, NF-kB/RelA, cyclin D1, p27, and p21 (FIG. 4).

[8] = Maximum tolerated dose determination; type: in vivo, athymic nude mice; settings: intraperitoneal, daily for 14 days, doses up to 25 mg/kg (tested 5, 10, 25, 50 mg/kg/day)
[9] = Tolerability in PC-3 tumor-bearing mice (body weight, necropsy, histology, blood); type: in vivo, athymic nude mice; settings: 10 or 25 mg/kg daily, intraperitoneal, 42 days
Description: (§6) In vivo studies. […] Body weights were measured weekly.

[10] = test system: Bcl-xL; assay: Intratumoral biomarker immunoblotting of PC-3 tumor homogenates; type: in vivo, human; settings: intraperitoneal, 42 days
Description: as §6

[11] = test system: cyclin D1; assay: as above; type: in vivo, human; settings: intraperitoneal, 42 days
Description: as §6

[12] = test system: p27; assay: as above; type: in vivo, human; settings: intraperitoneal, 42 days
Description: as §6

[13] = test system: phospho-Akt; assay: as above; type: in vivo, human; settings: intraperitoneal, 42 days
Description: as §6

[14] = test system: phospho-p38; assay: as above; type: in vivo, human; settings: intraperitoneal, 42 days
Description: as §6

[15] = test system: LNCaP (p53+/+) androgen-responsive prostate cancer cells; assay: MTT cell viability assay; type: cell-based, human; settings: 24-h exposure
Excerpt: as §1, §2, §3

[16] = test system: PC-3 (p53−/−) androgen-nonresponsive prostate cancer cells; assay: MTT cell viability assay; type: cell-based, human; settings: PC-3 cells, 24-h exposure
Excerpt: as §1, §2, §3

[17] = test system: androgen receptor (AR); assay: Immunoblotting of AR expression in LNCaP cells; type: cell-based, human; settings: highest doses examined (data not shown)

O=[N+]([O-])c1cc(S(=O)(=O)n2cc(CO)c3ccccc32)ccc1Cl [OSU-A9, [1-(3′-nitro-4′-chlorobenzenesulfonyl)-1H-indol-3-yl]-methanol]
lower sensitivity of PrECs than the prostate cancer cells ([1]; PrEC IC50 versus PC-3 and LNCaP IC50): 2.2-4.5 fold | IC50 ([1]; PrECs, MTT assay): 9 µM | concentration that completely suppressed cell proliferation [2]: ≥ 2.5 µM | concentration that completely suppressed cell proliferation [3]: ≥ 2.5 µM | chemical stability in 0.1 N HCl, CH2OH proton signal by NMR [4]: no appreciable change | PPARγ transactivation [5]: lacked appreciable activity | morphological changes, light microscopy ([6]; 5 μM, 24 h): pronounced morphological changes | caspase-3 activation and PARP cleavage [6]: dose-dependent effect | apoptosis-inducing potency versus indole-3-carbinol ([6]; caspase-3 activation and PARP cleavage): 100 fold | phosphorylation of Akt and its substrates GSK3b and Bad [7]: dose-dependent dephosphorylation | phosphorylation of ERKs, JNK, and p38 [7]: increased phosphorylation | expression of Bax, p27, and p21 [7]: up-regulating the expression | weight loss [8]: No apparent weight loss | body weight compared to vehicle-treated controls [9]: without significant loss of body weight | hematological and serum chemistry findings [9]: normal hematological and serum chemistry findings | overt toxicity / tolerability [9]: well-tolerated; also recorded: without overt signs of toxicity | lesions observed at necropsy ([9]; limited to peritoneal surfaces): mild to moderate amounts of fibrous adhesions | microscopic lesions in tissues examined ([9]; with the exception of the affected peritoneum): no treatment-associated lesions; also recorded: no significant lesions | reduction in intratumoral Bcl-xL ([10]; 10 mg/kg per day): 34±8% | reduction in intratumoral Bcl-xL ([10]; 25 mg/kg per day): 86±4% | reduction in intratumoral cyclin D1 ([11]; 10 mg/kg per day): 70±3% | reduction in intratumoral cyclin D1 ([11]; 25 mg/kg per day): 88±3% | increase in intratumoral p27 ([12]; 10 mg/kg per day): 1.8±0.3 fold | increase in intratumoral p27 ([12]; 25 mg/kg per day): 2.7±1.4 fold | reduction in intratumoral phospho-Akt compared to vehicle-treated controls ([13]; 10 mg/kg per day): 83±8% | reduction in intratumoral phospho-Akt compared to vehicle-treated controls ([13]; 25 mg/kg per day): 94±1% | increase in intratumoral phospho-p38 ([14]; 10 mg/kg per day): 9.0±3.5 fold | increase in intratumoral phospho-p38 ([14]; 25 mg/kg per day): 10.1±2.4 fold

OCc1c[nH]c2ccccc12 [indole-3-carbinol]
IC50 [15]: 267 µM | IC50 [16]: 512 µM | concentration that completely suppressed cell proliferation [2]: at least 300 μM | concentration that completely suppressed cell proliferation [3]: at least 300 μM | chemical stability in 0.1 N HCl, CH2OH proton signal by NMR [4]: immediate shift of the CH2 signal | morphological changes, light microscopy ([6]; 500 μM, 48 h): pronounced morphological changes | caspase-3 activation and PARP cleavage [6]: dose-dependent effect | phosphorylation of Akt and its substrates GSK3b and Bad [7]: dose-dependent dephosphorylation | phosphorylation of ERKs, JNK, and p38 [7]: increased phosphorylation | expression of Bax, p27, and p21 [7]: up-regulating the expression | AR expression [17]: neither agents had an appreciable effect
